# Measurements as given in patent US20220218800A1, “BETA-LACTAMASE COMPOSITIONS FOR TREATMENT OF GRAFT VERSUS HOST DISEASE” (Synthetic Biologics, Inc., priority 2019, published 2022).
# Where two headings read alike, the source gives them in different places.
# B1: SYN-006: beta-lactamase polypeptide with the sequence of SEQ ID NO: 6 (protein)
# chain: ETGTISISQLNKNVWVHTELGYFNGEAVPSNGLVLNTSKGLVLVDSSWDNKLTKELIEMVEKKFQKRVTDVIITHAHADRIGGITALKERGIKAHSTALTAELAKNSGYEEPLGDLQTITSLKFGNTKVETFYPGKGHTEDNIVVWLPQYQILAGGCLVKSAEAKDLGNVADAYVNEWSTSIENVLKRYGNINSVVPGHGEVGDKGLLLHTLDLLK
# modifications: Synthetic polymer.
# Tests used:
# [1] = tested on: Firmicutes bacterial phylum; experiment: 16S sequencing of mouse stool: Firmicutes level, piperacillin/tazobactam with or without P3A; format: in vivo, mice; settings: FIG. 2
# Experimental: (§1) Mice received a subcutaneous administration of 125 mg/kg piperacillin/tazobactam twice per day for two days. […] A control cohort of mice received neither piperacillin/tazobactam nor P3A via oral gavage. Another control cohort of mice received P3A only.
# [2] = tested on: Enterococcus; experiment: 16S sequencing of stool at day 21 post-transplantation: Enterococcus monodomination (SYN-004); format: in vivo, 129S1 mice
# Experimental: This experiment was conducted to assess the effect of SYN-004 administration on modulating and/or reducing Enterococcus monodomination. The experiment was also designed to assess whether SYN-004 administration could prevent the decrease of microbiome diversity in lethally irradiated mice having undergone a bone marrow transplantation.
# 129S1 mice were lethally irradiated and then transplanted with bone marrow cells (B6 donor bone marrow) at 5M and defined doses of splenic T lymphocytes from C57BL/6 mice at 2M. The mice were divided in three cohorts: (1) a cohort that received administration of saline; (2) a cohort that received administration of piperacillin/tazobactam; and (3) a cohort that received administration of piperacillin/tazobactam (Zosyn, abbreviated as ZO) and SYN-004 (P3A; abbreviated as Blact).
# Stool samples were collected at day 21 post-transplantation and 16S sequencing analysis was performed.
# [3] = tested on: total bacteria; experiment: 16S sequencing of mouse stool: total bacteria copies per gram of stool; format: in vivo, mice; settings: FIG. 3
# Experimental: as §1
# 16S sequencing analysis was also performed to evaluate the total bacteria copies present per gram of mouse stool.
# [4] = tested on: 129S1 mice; experiment: Survival study of antibiotic-exacerbated GVHD after bone marrow transplantation (P3A); format: in vivo; settings: BM+T cells; piperacillin/tazobactam 100 mg/kg s.c. + P3A 20 mg/kg oral gavage three times per week from day 10; endpoint 30 days post-BMT; FIG. 4
# Experimental: This experiment was conducted to assess the effect of SYN-004 administration on protecting and/or reducing GVHD severity associated with bone marrow transplantation.
# 129S1 mice were lethally irradiated and then transplanted with bone marrow cells (B6 donor bone marrow) at 5M and defined doses of splenic T lymphocytes from C57BL/6 mice at 2M. Both of these mice share the MHC-type H2b and thus represent a clinically relevant MHC-matched transplantation model.
# [5] = Piperacillin levels in mouse stool after s.c. piperacillin/tazobactam with or without oral P3A; format: in vivo, mice; settings: piperacillin/tazobactam 500 mg/kg s.c. twice per day for two days + P3A liquid formulation 10 mg/kg oral gavage twice per day for two days; FIG. 1
# Experimental: Mice received a subcutaneous administration of 500 mg/kg piperacillin/tazobactam twice per day for two days. […] A control cohort of mice received neither piperacillin/tazobactam nor P3A via oral gavage.
# After 2 days, mouse stool was evaluated for presence of piperacillin.
# [6] = tested on: Enterococcus; experiment: 16S sequencing of mouse stool: Enterococcus monodomination, imipenem+cilastatin with or without SYN-006; format: in vivo, mice; settings: FIG. 8; for largest bars (genus) in 16S analysis, post-antibiotic: post-abx; for Enterococcus monodominance in stool: vs imipenem+cilastatin only
# Experimental: (§2) Next, experiments were conducted to assess the effect of SYN-006 (P2A) administration on modulating and/or reducing Enterococcus monodomination, and specifically, overgrowth of Enterococcus faecium, in imipenem-treated mice.
# (§3) Mice received a subcutaneous administration of 100 mg/kg imipenem+cilastatin for two days, with stool samples collected on the third day. […] Stool samples were collected on day 3 and 16S sequencing analysis was performed.
# [7] = tested on: Enterococcus faecium; experiment: Relative abundance of Enterococcus faecium in stool of imipenem-treated mice; format: in vivo; settings: imipenem+cilastatin 100 mg/kg s.c. alone or with P2A 1, 10, 50 mg/kg oral gavage; FIG. 9
# Experimental: as §2, §3
# [8] = tested on: Firmicutes bacterial phylum; settings: stool day 3, FIG. 7
# Experimental: Experiments were conducted to determine whether a liquid formulation of SYN-006 (e.g., a beta-lactamase in a phosphate-buffered saline solution) could be delivered to the small and large intestine of mice via oral gavage.
# Mice received a subcutaneous administration of 100 mg/kg imipenem+cilastatin for two days, with stool samples collected on the third day.
# On day 3, mouse stool was collected.
# [9] = tested on: 129S1 mice; experiment: Survival study of antibiotic-exacerbated GVHD after bone marrow transplantation (P2A); format: in vivo; settings: BM+T cells; imipenem+cilastatin 100 mg/kg s.c. + P2A 50 mg/kg oral gavage three times per week days 10-25; endpoint 40 days post-BMT; p=0.0096, Mantel-Cox test; FIG. 10
# Experimental: This experiment was conducted to assess the effect of SYN-006 (P2A) administration on protecting and/or reducing GVHD severity associated with bone marrow transplantation.
# 129S1 mice were lethally irradiated and then transplanted with bone marrow cells (B6 donor bone marrow) at 5M and defined doses of splenic T lymphocytes from C57BL/6 mice at 2M. Both of these mice share the MHC-type H2^b and thus represent a clinically relevant MHC-matched transplantation model.
# [10] = piperacillin/tazobactam 125 mg/kg s.c. + P3A 10 mg/kg oral gavage, twice per day for two days
# [11] = piperacillin/tazobactam alone, 125 mg/kg s.c. twice per day for two days
molecule,measurement,setting,value
SYN-004: beta-lactamase with the amino acid sequence of SEQ ID NO: 1; D276N relative to P1A,fold abundance of Firmicutes in mouse stool,[1]; [10],recovered and protected
same,largest bars (genus) in 16S analysis,"[2]; FIG. 5, Zosyn+SYN-004",Clostridium
same,largest bars (genus) in 16S analysis,"[2]; FIG. 6, BM (bone marrow) group, ZO+Blact",Enterococcus in the first two bars from the left and Clostridium in the next two bars from the left
same,largest bars (genus) in 16S analysis,"[2]; FIG. 6, BM+T cells group, ZO+Blact",Clostridium
same,Enterococcus monodominance in stool,"[2]; piperacillin/tazobactam + SYN-004 vs piperacillin/tazobactam only, day 21 post-transplantation, FIG. 5 and 6",reduced Enterococcus monodominance
same,total bacterial copies present in mouse stool,[3]; [10],decrease was reduced
same,"survival (mortality), antibiotic-exacerbated GVHD",[4],reduced antibiotic-exacerbated GVHD
same,amount of piperacillin in mouse stool,[5],reduced
imipenem+cilastatin [reference compound],"largest bars (genus) in 16S analysis, post-antibiotic",[6]; imipenem group (no P2A),Enterococcus
piperacillin/tazobactam [reference compound],abundance of Firmicutes in mouse stool,[1]; [11],reduced
same,largest bars (genus) in 16S analysis,"[2]; FIG. 5, Zosyn alone",Enterococcus
same,largest bars (genus) in 16S analysis,"[2]; FIG. 6, BM (bone marrow) group, ZO alone",Enterococcus
same,largest bars (genus) in 16S analysis,"[2]; FIG. 6, BM+T cells group, ZO alone",Enterococcus
same,total bacterial copies present in mouse stool,[3]; [11],decreased
B1,overgrowth (relative abundance) of Enterococcus faecium in mouse stool,[7],prevents overgrowth of Enterococcus faecium
same,fold abundance of Firmicutes in mouse stool,[8]; imipenem+cilastatin 100 mg/kg s.c. for two days + P2A 10 mg/kg oral gavage twice per day,recovered and protected
same,fold abundance of Firmicutes in mouse stool,[8]; imipenem+cilastatin 100 mg/kg s.c. for two days + P2A 50 mg/kg oral gavage twice per day,recovered and protected
same,"largest bars (genus) in 16S analysis, post-antibiotic",[6]; imipenem+P2A (1 mg) group,Enterococcus
same,"largest bars (genus) in 16S analysis, post-antibiotic",[6]; imipenem+P2A (10 mg) group,Clostridium
same,"largest bars (genus) in 16S analysis, post-antibiotic",[6]; imipenem+P2A (50 mg) group,Lactobacillus and Clostridium
same,Enterococcus monodominance in stool,[6]; imipenem+cilastatin 100 mg/kg s.c. + SYN-006 10 mg/kg oral gavage twice per day for two days,reduced Enterococcus monodominance
same,Enterococcus monodominance in stool,[6]; imipenem+cilastatin 100 mg/kg s.c. + SYN-006 50 mg/kg oral gavage twice per day for two days,reduced Enterococcus monodominance
same,"survival (mortality), antibiotic-exacerbated GVHD",[9],reduced antibiotic-exacerbated GVHD
